Columns and labels:
ABCG2 [1] = target: T1, ABCG2 (Homo sapiens, UniProt Q9UNQ0); experiment: Accumulation assay with mitoxantrone in MDCKII-ABCG2 cells; format: cell-based; conditions: normalized to Ko143, read-out: ABCG2 inhibition IC50
T1 construct: expressed in transfected cells; host or cells: MDCKII (canine kidney) subline MDCKII-ABCG2, gift of Dr. Alfred Schinkel
Experimental: The conduction of accumulation assays followed the slightly changed protocol described previously. In the study, MDCKII-par, MDCKII-ABCB1, MDCKII-ABCC1, MDCKII-ABCG2, and primary explants were seeded into 12-well plates in variant densities, 22.0 × 10^4, 15.0 × 10^4, 25.0 × 10^4, 22.0 × 10^4, and 15.0 × 10^4 cells/well, respectively. After 24 h incubation, two washing steps with 1 × PBS were applied. […] The cells were then incubated under standard conditions for 30 min. Next steps included placing the plates on ice, washing the cells with ice-cold 1 × PBS two-times, and detaching the cells with the ice-cold 10 × trypsin without phenol red. Following trypsinization, cells were resuspended in 1 × PBS containing 2% FBS. Subsequently, cell suspensions were transferred into the test tubes and kept on ice. The fluorescence in cells was measured immediately after the collection of their suspensions using flow cytometer Sony SA3800 Spectral Cell Analyzer (Sony Biotechnology, San Jose, CA, USA). SA3800 software (Sony Biotechnology, San Jose, CA, USA) was used to evaluate the data.

MTT proliferation assay = format: cell-based, Canine; conditions: dog, MDCKII-ABCB1 cells, comparative MTT, read-out: antiproliferative IC50
Experimental: (§1) The viability MTT assay was employed in several experimental sets, including induction studies, comparative viability assays, and drug combinations. First, 1.3 × 10^4 (MDCKII sublines), 1.2 × 10^4 (A431 sublines), 1.5 × 10^4 (MCF-7), and 1.0 × 10^4 (primary NSCLC explants) cells were seeded in 96-well plates. After seeding, cells were left to refresh in incubator for 24 h. Secondly, the medium was removed, and the serial dilutions of the drugs or drug combinations were added to the cells. Next to these variants, a medium with 40% DMSO and vehicle-containing media were tested as nonviable and unaffected viability controls, respectively. After an additional 48 h of incubation, the cells were washed with 1 × PBS and then treated with 1 mg/mL MTT solution in Opti-MEM. Subsequently, cells were incubated for 60 min under standard conditions. After MTT treatment, generated formazan crystals were solubilized with DMSO for 10 min. Wavelengths of 570 nm (formazan) and 690 nm (background) were used for absorbance measurements using a microplate reader Infinite 200 Pro NanoQuant (Tecan, Männedorf, Switzerland).

A431-ABCC1 = experiment: MTT proliferation / drug combination assay; format: cell-based; conditions: Homo sapiens, comparative MTT, 48 h, read-out: antiproliferative IC50
Experimental: as §1
(§2) In vitro cell lines (MDCKII and A431) and primary NSCLC explants were seeded (see densities above) in 96-well plates and incubated for 24 h. […] Combined cells were incubated with the tested compounds for 48 h, and subsequently, MTT assay was performed to assess cell viability as described above. Besides IC50-shift analysis, CompuSyn 3.0.1 software (ComboSyn Inc., Paramus, NJ, USA) was used for the additional analysis of obtained data. This software works with the algorithms of the combination index (CI) method of Chou–Talalay, which is frequently used for the accurate quantification of drug combinations’ outcomes. According to the CI method principle, the combination effects were separated into three categories, including synergistic (CI < 0.9), additive (CI between 0.9–1.1), or antagonistic (CI > 1.1) ones.

A431-ABCG2 = experiment: MTT proliferation / drug combination assay; format: cell-based; conditions: Homo sapiens; A431-ABCG2; comparative MTT, 48 h; read-out: antiproliferative IC50
Experimental: as §1, §2

A431-parent = experiment: MTT proliferation / drug combination assay; format: cell-based; conditions: Homo sapiens, A-431; A431 parental; comparative MTT, 48 h; read-out: antiproliferative IC50
Experimental: as §1, §2

A431-ABCB1 = experiment: MTT proliferation assay; format: cell-based; conditions: Homo sapiens, comparative MTT, 48 h, read-out: antiproliferative IC50
Experimental: as §1

MCF-7 cells = experiment: MTT viability experiment; format: cell-based, Human; conditions: 0.5 µM, 48 h
Experimental: as §1

ABCB1 mRNA = experiment: Gene induction study (qRT-PCR) in MCF-7 cells; format: cell-based, Human; conditions: 0.5 µM, 24 and 48 h
Experimental: (§3) Gene expression analyses based on quantitative real-time reverse transcription PCR (qRT-PCR) were performed as described previously. MCF-7 cell line (3.8×10^5 cells/well) was seeded in 12-well plates 24 h before induction experiments. […] After 24 and 48 h intervals, samples were collected by using TRI Reagent. Subsequently, total RNA was isolated from the cells using the chloroform/isopropanol method. Reverse transcription of 1 μg RNA to cDNA was conducted with ProtoScript II Reverse Transcriptase using T100 Thermal Cycler (Bio-Rad Laboratories, Hercules, CA, USA) according to the two-step protocol described previously. The expressions of ABCB1, ABCC1, and ABCG2 genes were measured by qRT-PCR using specific TaqMan assays with QuantStudio 6 machine (Life Technologies, Carlsbad, CA, USA). qRT-PCR reactions were run under predefined thermal cycling conditions (95 °C for 10 min, then 40 repeats of a cycle of 95 °C for 15 s and 60 °C for 60 s). GAPDH and B2M were used as house-keeping genes; the fold-changes in target genes’ expressions were determined according to the 2^-ΔΔCt method.

ABCC1 mRNA = experiment: Gene induction study (qRT-PCR) in MCF-7 cells; format: cell-based, Human; conditions: 0.5 µM, 24 and 48 h
Experimental: as §3

ABCG2 mRNA = experiment: Gene induction study (qRT-PCR) in MCF-7 cells; format: cell-based, Human; conditions: 0.5 µM, 24 and 48 h
Experimental: as §3

ABCG2 [2] = conditions: Abcg2-knockout mice, MDCKII-ABCG2 cells; cited from earlier work
ABCG2 [3] = conditions: 12-days exposure; MCF-10A; cited from earlier work
ABCB1 = ABCB1 (Homo sapiens, UniProt P08183); design: expressed in transfected cells; host or cells: MDCKII (canine kidney) subline MDCKII-ABCB1, gift of Dr. Alfred Schinkel; conditions: Abcb1-knockout mice, MDCKII-ABCB1 cells; cited from earlier work
Chain of ABCB1 (P08183 whole entry): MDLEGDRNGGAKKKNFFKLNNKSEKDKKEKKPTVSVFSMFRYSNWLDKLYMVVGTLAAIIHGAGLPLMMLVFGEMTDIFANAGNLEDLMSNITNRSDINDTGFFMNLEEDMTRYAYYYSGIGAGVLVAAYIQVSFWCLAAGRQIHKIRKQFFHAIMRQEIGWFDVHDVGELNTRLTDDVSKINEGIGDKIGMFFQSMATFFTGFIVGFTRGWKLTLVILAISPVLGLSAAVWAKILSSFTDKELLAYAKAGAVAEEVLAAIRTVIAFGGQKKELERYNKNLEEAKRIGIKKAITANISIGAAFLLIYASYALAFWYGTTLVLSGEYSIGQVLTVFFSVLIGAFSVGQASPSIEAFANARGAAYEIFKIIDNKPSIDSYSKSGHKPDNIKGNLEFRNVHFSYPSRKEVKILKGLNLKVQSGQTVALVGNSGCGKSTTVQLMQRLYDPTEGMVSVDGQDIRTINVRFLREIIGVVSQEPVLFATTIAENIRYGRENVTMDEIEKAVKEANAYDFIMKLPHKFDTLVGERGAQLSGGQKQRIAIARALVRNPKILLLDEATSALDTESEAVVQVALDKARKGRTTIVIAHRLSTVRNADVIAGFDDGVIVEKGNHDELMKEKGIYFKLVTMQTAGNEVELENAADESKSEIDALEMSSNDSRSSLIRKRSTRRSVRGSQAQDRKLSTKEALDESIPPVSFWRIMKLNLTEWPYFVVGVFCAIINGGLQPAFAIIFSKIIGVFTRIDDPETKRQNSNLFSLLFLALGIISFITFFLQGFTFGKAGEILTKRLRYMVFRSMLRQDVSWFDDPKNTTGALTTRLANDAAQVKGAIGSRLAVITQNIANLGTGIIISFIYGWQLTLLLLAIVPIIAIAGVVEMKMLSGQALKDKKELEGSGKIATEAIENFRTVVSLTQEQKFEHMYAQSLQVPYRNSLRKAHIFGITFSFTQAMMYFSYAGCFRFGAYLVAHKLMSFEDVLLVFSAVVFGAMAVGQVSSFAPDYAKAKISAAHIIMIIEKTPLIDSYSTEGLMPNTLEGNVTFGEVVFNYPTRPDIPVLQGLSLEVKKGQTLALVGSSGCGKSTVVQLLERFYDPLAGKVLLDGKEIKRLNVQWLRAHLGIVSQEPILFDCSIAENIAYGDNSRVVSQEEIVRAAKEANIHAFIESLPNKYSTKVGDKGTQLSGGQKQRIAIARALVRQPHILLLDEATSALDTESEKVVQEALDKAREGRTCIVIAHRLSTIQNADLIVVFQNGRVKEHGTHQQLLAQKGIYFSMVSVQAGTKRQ

T1 sequence (Q9UNQ0 whole entry): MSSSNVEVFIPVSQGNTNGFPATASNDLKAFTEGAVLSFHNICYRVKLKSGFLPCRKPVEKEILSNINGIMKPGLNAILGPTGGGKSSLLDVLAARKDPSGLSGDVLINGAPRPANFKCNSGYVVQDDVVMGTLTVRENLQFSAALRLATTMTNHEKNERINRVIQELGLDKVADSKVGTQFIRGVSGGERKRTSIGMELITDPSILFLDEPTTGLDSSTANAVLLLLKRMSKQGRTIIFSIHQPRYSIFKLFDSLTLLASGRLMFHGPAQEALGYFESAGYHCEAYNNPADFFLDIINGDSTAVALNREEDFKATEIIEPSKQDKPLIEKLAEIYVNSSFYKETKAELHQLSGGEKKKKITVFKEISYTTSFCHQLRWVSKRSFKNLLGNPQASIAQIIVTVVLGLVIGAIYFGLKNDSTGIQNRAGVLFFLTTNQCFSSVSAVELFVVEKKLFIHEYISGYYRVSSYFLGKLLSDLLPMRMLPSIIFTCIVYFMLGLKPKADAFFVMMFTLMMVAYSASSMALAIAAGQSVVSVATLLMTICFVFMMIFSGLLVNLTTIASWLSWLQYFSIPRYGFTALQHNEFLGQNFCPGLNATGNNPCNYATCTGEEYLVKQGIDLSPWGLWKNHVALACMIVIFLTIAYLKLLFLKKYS

SMILES: Cn1ncnc1[C@H]1c2n[nH]c(=O)c3cc(F)cc(c23)N[C@@H]1c1ccc(F)cc1 [talazoparib, Talazoparib]
- IC50 (ABCG2 [1]): 11.2 µM
- IC50 at 48 h (MTT proliferation assay): 67.5 µM
- IC50 (A431-ABCC1): 91.5 µM
- IC50 (A431-ABCG2): 91.8 µM
- IC50 (A431-parent): 86.8 µM
- IC50 (A431-ABCB1): 92.7 µM
- toxicity in MTT viability experiment (MCF-7 cells): negligibly toxic
- change of ABCB1 mRNA expression vs vehicle control (ABCB1 mRNA): did not trigger the transporters’ expression increase or decrease by more than 100% or 50%
- change of ABCC1 mRNA expression vs vehicle control (ABCC1 mRNA): did not trigger the transporters’ expression increase or decrease by more than 100% or 50%
- change of ABCG2 mRNA expression vs vehicle control (ABCG2 mRNA): did not trigger the transporters’ expression increase or decrease by more than 100% or 50%
- ABCG2 substrate status (ABCG2 [2]): not of ABCG2
- effect on ABCG2 mRNA (ABCG2 [3]): upregulate
- effect on ABCG2 protein level (ABCG2 [3]): decreased
- ABCB1 substrate status (ABCB1): substrate of ABCB1

Reference: PMC9697930 (International Journal of Molecular Sciences, 2022)
